The nature of the series: FRET-based detection of thiols with coumarin-DAP-FITC. As to conditions: 5 μM probe, Hepes pH 7.0; excitation 300 to 330 nm; no DTT. Here is the method:
FIG. 18. FRET-based detection of thiols: (a) R^1—S—S—R^2 probe with FRET capability (coumarin-DAP-FITC); (b) Fluorescence emission of coumarin-DAP-FITC at different excitation wavelengths; (c) Fluorescence emission of coumarin DAP-FITC after treatment with 1 mM DTT reductant (5 min) at different excitation wavelengths.
Hepes (pH 7.0) buffer was used in this study (FIG. 18) and fluorescence readings were made on a BMG Polarstar Galaxy fluorescence plate reader and/or on a Jasco FP-6500 spectrofluorometer. […] The probe (5 μM) was transferred to a 4 mL fluorescence cell and a three dimensional fluorescence spectra was recorded with excitation wavelength from 300 nm to 400 nm and emission wavelength from 400 nm to 600 nm. The coumarin chromophone has maximum excitation wavelength in the range of 310 to 325 nm and emits in the range of 400 nm to 425 nm. […] Analogues of this coumarin-DAP-FITC FRET pair can be used to tune excitation wavelengths in the range of 280 to 400 nm by placing different substitutions on the coumarin core. This includes using commercially available coumarin compounds and also coumarin compounds synthesized with functional groups like NO2, CN, NH2, COOH, CHO, alkyl, benzyl, pyridyl, naphthyl, indoles, etc at any of the synthetically feasible positions on benzyl ring of coumarin or lactone ring of coumarin. […]

SMILES strings stand for the structures.

Regarding `Cc1cc(=O)oc2cc(SSc3ccc(C(=S)Nc4ccc(C(=O)O)c(-c5c6ccc(=O)cc-6oc6cc(O)ccc56)c4)cc3)ccc12` [coumarin-DAP-FITC, 2-(6-Hydroxy-3-oxo-3H-xanthen-9-yl)-4-[4-(4-methyl-2-oxo-2H-chromen-7-yldisulfanyl)-thiobenzoylamino]-benzoic acid], the “fluorescence emission of intact probe” value is “emission is only from FITC at 520 nm”.

Source of the values: patent US7820833B2, “Dithio compounds” (Marquette University, priority 2005, dated 2010).
